Assays:
Type in all cases: cell-based
Brd3 = Brd3 (Homo sapiens, UniProt Q15059); assay: Time-dependent BET degradation, immunoblot; settings: HEK293, Brd3, 1 μM; for Dmax at 1 µM: 0-24 hrs; for Abs. T1/2: time to deplete 50% of the protein relative to DMSO; for T1/2: time to reach 50% of the Dmax
Experimental: (§1) Immunoblotting. Proteins were separated by SDS-PAGE on NuPage 4-12% Bis-Tris gels, followed by transfer to Amersham Protran 0.45 NC nitrocellulose membrane (GE Healthcare) using wet transfer. Membranes were blocked using 5% w/v milk in Tris-buffered saline (TBS) with 0.1% Tween-20. Blots were probed (overnight at 4 °C) using anti-Brd2 (Abcam ab139690, 1:2,000 dilution), anti-Brd3 (Abcam ab50818, 1:500 dilution), and anti-Brd4 (Abcam ab128874, 1:1,000 dilution) primary antibodies, as appropriate. The next day, blots were washed with TBST and incubated (1 h at Room temperature) with anti-Tubulin hFAB-rhodamine (BioRad, 12004166) primary antibody, and either anti-rabbit IRDye 800CW (Licor 1:1,000 dilution) or anti-mouse IRDye 800CW (Licor 1:1,000 dilution) secondary antibody. Blots were developed using a Bio-Rad ChemiDoc MP Imaging System, and band quantification was performed using Image Studio software (LiCor). Band intensities were normalized to the tubulin loading control and reported as % of the average 0.1% DMSO vehicle intensity. Degradation data was plotted and analysed using Prism (Graphpad, version 8).
(§2) HEK293 (0.5×10^6) cells were seeded in standard 6-well plates (2 mL medium) overnight before treatment with compounds at 1 μM concentration, with a final DMSO concentration of 0.1% v/v. After incubation for the desired time (0-24 hrs), cells were washed with DPBS (Gibco) and lysed using 85 μL RIPA buffer (Sigma-Aldrich) supplemented with complete Mini EDTA-free protease inhibitor cocktail (Roche) and benzonase. Lysates were clarified by centrifugation (20000 g, 10 min, 4° C.) and the total protein content of the supernatant was quantified using a Bradford colorimetric assay. Samples were prepared using equal amounts of total protein and LDS sample buffer (Invitrogen). Band intensities were normalized to the tubulin loading control and reported as % of the average 0.1% DMSO vehicle intensity. Degradation data was plotted and analysed using Prism (Graphpad, version 8).
MZ1 and 11JQ17 were used at 1 μM (4 h) for positive and negative controls, respectively. […]

Brd4 (L) = target: T1, Brd4 (L) (Homo sapiens, UniProt O60885); assay: Time-dependent BET degradation, immunoblot; design: Dmax: dose or concentration left out as unconfirmed; settings: HeLa; for Abs. T1/2 / T1/2: 1 μM; for Abs. T1/2: time to deplete 50% of the protein relative to DMSO; for T1/2: time to reach 50% of the Dmax
T1 construct: endogenous in cells; host or cells: HEK293 (CRL-1573), HeLa (CCL-2)
Experimental: as §1, §2
(§3) MZ1 and 11JQ17 were used at 1 μM (4 h) for positive and negative controls, respectively. […] T1/2 (h) is the time required to deplete 50% of the protein relative to DMSO.

Brd4 (S) = target: T2, Brd4 (S) (Homo sapiens, UniProt O60885); assay: Time-dependent BET degradation, immunoblot; design: Dmax: dose or concentration left out as unconfirmed; settings: HeLa; for Abs. T1/2 / T1/2: 1 μM; for Abs. T1/2: time to deplete 50% of the protein relative to DMSO; for T1/2: time to reach 50% of the Dmax
T2 construct: endogenous in cells; host or cells: HEK293 (CRL-1573), HeLa (CCL-2)
Experimental: as §1, §2, §3

Brd4 = target: T3, Brd4 (Homo sapiens, UniProt O60885); assay: Mechanistic evaluation: Brd4 degradation after inhibitor pre-treatment; settings: HEK293, 1 μM degrader 4 h
T3 construct: immunoblot analysis of Brd4 following 4 h treatment of HEK293 cells; endogenous in cells; host or cells: HEK293 (CRL-1573)
Experimental: HeLa (5×10^5) and HEK293 (1×10^6) cells were seeded in standard 6-well plates (2 mL medium) overnight before pre-treatment with inhibitors (10 μM bortezomib, 10 μM capzimin, 10 μM JQ1). After a 0.5 h pre-incubation time, cells were subsequently treated with vehicle, 1 μM MZ1 or 1 μM 11JQ15, yielding a final overall DMSO concentration of 0.2% v/v. After 4 h incubation, cells were washed with DPBS (Gibco) and lysed using 85 μL RIPA buffer (Sigma-Aldrich) supplemented with cOmplete Mini EDTA-free protease inhibitor cocktail (Roche) and benzonase. Lysates were clarified by centrifugation (20000 g, 10 min, 4° C.) and the total protein content of the supernatant was quantified using a Bradford colorimetric assay. Samples were prepared using equal amounts of total protein and LDS sample buffer (Invitrogen).
Brd4 band intensities were normalized to tubulin loading control and reported in FIG. 6B as % of the average 0.1% DMSO vehicle intensity. Each bar is mean±SEM of three independent experiments performed in duplicate (n=3).

MV4-11 cells = assay: CellTiter-Glo anti-proliferative assay; settings: MV4-11, 72 h, 5 μM and below compound
Experimental: The anti-proliferative effects of representative compounds and other compounds was measured using the CellTiter-Glo assay (Promega). MV4-11 cells were incubated in a sterile, white, clear-bottomed 384-well cell-culture microplate (Greiner Bio-one), at 2× concentration in RPMI media and a volume of 25 μl. The next day, test compounds were serially diluted in RPMI media to 2× concentration, then added to cells to make a final volume of 50 μl. After a 72 h incubation 25 μl of CellTiter-Glo reagent was added to each well. Following 15 minute incubation the luminescence signal was read on a Pherastar FS. The final concentration of assay components are as follows: 3×10^5 cells/ml, 0.05% DMSO, 5 μM and below compound. Data (FIG. 8) was processed and dose-response curves generated using Prism 8 (Graphpad).

[1] = test system: Brd4, c-MYC, cleaved PARP (C-PARP); assay: Immunoblot of Brd4, c-MYC and cleaved PARP in MV4-11 cells
Experimental: MV4-11 (0.7×10^6 cells/mL) were seeded in 10 cm plates (10 mL DMEM supplemented with 10% FBS and L-glutamine) overnight before treatment with compounds at the desired concentration and with a final DMSO concentration of 0.1% v/v. After 6 h incubation time, cells were washed with 2× with DPBS (Gibco) and lysed using 85 μL RIPA buffer (Sigma-Aldrich) supplemented with cOmplete Mini EDTA-free protease inhibitor cocktail (Roche) and benzonase. Lysates were clarified by centrifugation (20000 g, 10 min, 4° C.) and the total protein content of the supernatant was quantified using a Bradford colorimetric assay. Samples were prepared using equal amounts of total protein and LDS sample buffer (Invitrogen). For immunoblot analysis, the following antibodies were used: anti-Brd4 (ab128874, 1:1,000 dilution), anti-cmyc (ab32072, 1:1000 dilution), anti-CPARP (CST-9541T, 1:1,000 dilution), and anti-Tubulin hFAB-rhodamine (BioRad, 12004166, 1:10000 dilution).

[2] = MV4-11, increasing concentrations, 6 h

Brd3, sequence (Q15059 whole entry): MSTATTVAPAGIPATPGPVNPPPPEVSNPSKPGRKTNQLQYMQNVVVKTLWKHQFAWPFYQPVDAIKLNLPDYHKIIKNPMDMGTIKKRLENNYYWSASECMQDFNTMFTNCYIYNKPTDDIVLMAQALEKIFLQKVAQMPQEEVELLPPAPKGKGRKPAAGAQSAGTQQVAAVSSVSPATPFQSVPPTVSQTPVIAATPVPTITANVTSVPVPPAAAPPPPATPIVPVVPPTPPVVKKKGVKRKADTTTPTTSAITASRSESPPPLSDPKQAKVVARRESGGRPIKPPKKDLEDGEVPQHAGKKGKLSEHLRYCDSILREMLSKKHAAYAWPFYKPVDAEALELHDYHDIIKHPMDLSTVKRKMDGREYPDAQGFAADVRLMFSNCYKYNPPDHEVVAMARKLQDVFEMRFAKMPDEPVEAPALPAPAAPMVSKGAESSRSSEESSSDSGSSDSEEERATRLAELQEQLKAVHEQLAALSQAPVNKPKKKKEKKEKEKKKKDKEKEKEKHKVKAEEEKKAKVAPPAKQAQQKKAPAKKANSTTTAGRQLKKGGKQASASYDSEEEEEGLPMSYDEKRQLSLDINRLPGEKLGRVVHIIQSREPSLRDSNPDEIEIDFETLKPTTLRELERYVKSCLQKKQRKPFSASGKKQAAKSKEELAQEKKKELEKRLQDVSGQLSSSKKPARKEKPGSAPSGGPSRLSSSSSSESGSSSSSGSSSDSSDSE

| Compound | Dmax at 1 µM (Brd3) | Abs. T1/2 (Brd3) | T1/2 (Brd3) | Dmax (Brd4 (L)) | Abs. T1/2 (Brd4 (L)) | T1/2 (Brd4 (L)) | Dmax (Brd4 (S)) | Abs. T1/2 (Brd4 (S)) | T1/2 (Brd4 (S)) | Brd4 degradation in the presence of JQ1 (Brd4; 10 μM JQ1 pre-treatment 0.5 h) | Brd4 degradation in the presence of bortezomib (Brd4; 10 μM bortezomib pre-treatment 0.5 h) | Brd4 degradation in the presence of capzimin (Brd4; 10 μM capzimin pre-treatment 0.5 h) | cytotoxicity profile / anti-proliferative effect (FIG. 8) (MV4-11 cells) | increase in C-PARP compared with JQ1 and 11JQ18 ([1]; MV4-11, 6 h) | Brd4 and c-MYC levels (FIG. 9) [1, 2] | cleaved PARP (FIG. 9) [1, 2] |
| --- | --- | --- | --- | --- | --- | --- | --- | --- | --- | --- | --- | --- | --- | --- | --- | --- |
| Cc1sc2c(c1C)C(c1ccc(Cl)cc1)=N[C@@H](CC(=O)NCCOCCNC(=O)c1cc(SC(=O)c3ccccc3)c3ncc(C(=O)NCCc4nccs4)cc3c1)c1nnc(C)n1-2 [Example 11JQ15] | 70% | 2.6 h | 1.5 h | 90% | 4.3 h | 3.5 h | 90% | 3.3 h | 2.8 h | completely blocked | completely blocked | significantly blocked |  |  |  |  |
| Cc1sc2c(c1C)C(c1ccc(Cl)cc1)=N[C@@H](CC(=O)NCCCCNC(=O)c1cc(S)c3ncc(C(=O)NCCc4nccs4)cc3c1)c1nnc(C)n1-2 [Example 11JQ7] | 95% | 3.4 h | 2.9 h | 100% | 2.4 h | 2.3 h | 100% | 3.1 h | 3 h |  |  |  | distinct from JQ1 and inactive 11JQ18 |  |  |  |
| Cc1sc2c(c1C)C(c1ccc(Cl)cc1)=N[C@@H](CC(=O)NCCCCNC(=O)c1cc(SC(=O)c3ccccc3)c3ncc(C(=O)NCCc4nccs4)cc3c1)c1nnc(C)n1-2 [Example 11JQ16] | 95% | 1.9 h | 1.6 h |  |  |  |  |  |  |  |  |  | distinct from JQ1 and inactive 11JQ18 | significantly greater than inhibitor (JQ1) alone and the negative control (11JQ18) | depletion of Brd4 and c-MYC levels | corresponding increase in cleaved PARP |

Reference: patent US11925690B2, “Bifunctional molecules for targeting Rpn11” (AMPHISTA THERAPEUTICS LTD, priority 2018, dated 2024)
